# Measured values taken from PubChem BioAssay AID1259408 (Genetic Toxicology Data Bank (GENE-TOX), 2018).
# The source made the active and inactive calls. No rule for the calls is given here.
# System: GENE-TOX genotoxicity assays, various organisms and cells
# Test: GENE-TOX mutagenicity studies
# Conditions: for call: Assay Type: In vivo carcinogenicity studies
# [1] = Species/Cell Type: Human diploid fibroblasts, Assay Type: Unscheduled DNA synthesis (UDS) in vitro, DNA effects, Assay Code: UDHT, Evaluation Type: Evaluation A (Pre-1980)
# [2] = Species/Cell Type: Nonhuman, Assay Code: CCG+L, Evaluation Type: Evaluation A (Pre-1980)
# [3] = Species/Cell Type: Salmonella typhimurium (one or more of the five standard strains: TA98, TA100, TA1535, TA1537, and TA1538), Assay Type: Histidine reverse gene mutation, Ames assay, Assay Code: SAL+, Evaluation Type: Evaluation A (Pre-1980)
# [4] = Species/Cell Type: Syrian hamster embryo (SHE) cells, Assay Type: Cell transformation, clonal assay, Assay Code: CTC+, Evaluation Type: Evaluation A (Pre-1980)
# [5] = Species/Cell Type: Bacillus subtilis (H17 vs M45), Assay Type: Rec-assay, spot test, DNA effects (bacterial DNA repair), Assay Code: REWT, Evaluation Type: Evaluation A (Pre-1980)
# [6] = Species/Cell Type: Salmonella typhimurium (one or more of the five standard strains: TA98, TA100, TA1535, TA1537, and TA1538), Assay Type: Histidine reverse gene mutation, Ames assay, Assay Code: SALT, Evaluation Type: Evaluation A (Pre-1980)
# [7] = Species/Cell Type: Mammalian polychromatic erythrocytes, Assay Type: Micronucleus test, chromosome aberrations, Assay Code: MNTT, Evaluation Type: Evaluation B (Post-1980)
# [8] = Species/Cell Type: Nonhuman, Assay Code: CCG+, Evaluation Type: Evaluation A (Pre-1980)
# [9] = Species/Cell Type: Escherichia coli polA (W3119 vs P3478), Assay Type: Rec-assay, DNA effects (bacterial DNA repair), Assay Code: RE1+, Evaluation Type: Evaluation A (Pre-1980)
compound,measurement,setting,value
c1ccc2c(c1)-c1cc3ccc4ccccc4c3cc1C1OC21 (configuration not stated),mutagenic call,"Species/Cell Type: Chinese hamster lung (V79) cells, Assay Type: Forward gene mutation at the HPRT or ouabain locus, Assay Code: V79+, Evaluation Type: Evaluation A (Pre-1980)",active; positive
same,mutagenic call,[1],no conclusion
same,mutagenic call,"Species/Cell Type: Mouse prostate cells, Assay Type: Cell transformation, Assay Code: CTM+D, Dose Response: With dose response, Evaluation Type: Evaluation A (Pre-1980)",active; positive
same,call,[2],active; positive
same,mutagenic call,"Species/Cell Type: Nonhuman, Assay Type: Sister-chromatid exchange (SCE) in vitro, Assay Code: SC2+D, Dose Response: With dose response, Evaluation Type: Evaluation B (Post-1980)",active; positive
same,mutagenic call,[3],active; positive
same,mutagenic call,[4],active; positive
O=S(=O)(O)c1ccc2c(N=Nc3ccc(S(=O)(=O)O)c4ccccc34)c(O)c(S(=O)(=O)O)cc2c1,mutagenic call,[5],no conclusion
same,mutagenic call,"Species/Cell Type: Bacillus subtilis (H17 vs M45T), Assay Type: Rec-assay, spot test, DNA effects (bacterial DNA repair), Assay Code: REXT, Evaluation Type: Evaluation A (Pre-1980)",no conclusion
same,mutagenic call,"Species/Cell Type: Rodents, Sex: Male, Assay Type: Dominant lethal test, Assay Code: DLT-, Evaluation Type: Evaluation A (Pre-1980)",inactive; negative
same,mutagenic call,"Species/Cell Type: Saccharomyces cerevisiae, Assay Type: Mitotic recombination or gene conversion, Assay Code: YEC-, Evaluation Type: Evaluation A (Pre-1980)",inactive; negative
same,mutagenic call,"Species/Cell Type: Salmonella typhimurium (one or more of the five standard strains: TA98, TA100, TA1535, TA1537, and TA1538), Assay Type: Histidine reverse gene mutation, Ames assay, Assay Code: SAL-, Evaluation Type: Evaluation A (Pre-1980)",inactive; negative
same,mutagenic call,"Species/Cell Type: Syrian hamster embryo (SA7/SHE) cells, Assay Type: Cell transformation, viral enhanced, Assay Code: CT7-, Evaluation Type: Evaluation A (Pre-1980)",inactive; negative
Oc1cc2cc3ccccc3c3ccc4cccc1c4c23,mutagenic call,"Species/Cell Type: Chinese hamster lung (V79) cells, Assay Type: Forward gene mutation at the HPRT or ouabain locus, Assay Code: V79-, Evaluation Type: Evaluation A (Pre-1980)",inactive; negative
same,call,"Species/Cell Type: Nonhuman, Assay Code: CCGT, Evaluation Type: Evaluation A (Pre-1980)",no conclusion
same,mutagenic call,"Species/Cell Type: Nonhuman, Assay Type: Sister-chromatid exchange (SCE) in vitro, Assay Code: SC2+, Evaluation Type: Evaluation B (Post-1980)",active; positive
same,mutagenic call,[6],no conclusion
Clc1ccc(Cl)c(-c2cc(Cl)ccc2Cl)c1,mutagenic call,[6],no conclusion
CCN(CC)c1nc(C)cc(OP(=S)(OC)OC)n1,mutagenic call,[7],no conclusion
Nc1ccc(-c2nc(NCC(O)CO)c3ccccc3n2)s1 (configuration not stated),mutagenic call,[6],no conclusion
Oc1ccc(Cl)cc1Cc1cc(Cl)ccc1O,mutagenic call,[7],no conclusion
COc1cc2cc3c4cc(OC)c(OC)cc4cc[n+]3c(C)c2cc1OC (tested in a mixture with another compound),mutagenic call,[6],no conclusion
CS(=O)(=O)OC[C@H](O)[C@@H]1CO1,mutagenic call,"Species/Cell Type: Allium cepa, Assay Type: Chromosome aberrations, Assay Code: ALC+D, Dose Response: With dose response, Evaluation Type: Evaluation A (Pre-1980)",active; positive
CC(=O)Nc1ccc(-c2ccc(NC(C)=O)cc2)cc1,call,[8],active; positive
COc1ccc2c(c1)c(CC(=O)O)c(C)n2C(=O)c1ccc(Cl)cc1,mutagenic call,"Species/Cell Type: Human lymphocytes, Assay Type: Sister-chromatid exchange (SCE) in vivo, Assay Code: SCY+, Evaluation Type: Evaluation B (Post-1980)",active; positive
same,mutagenic call,"Species/Cell Type: Human, Assay Type: Sister-chromatid exchange (SCE) in vitro, Assay Code: SC1T, Evaluation Type: Evaluation B (Post-1980)",no conclusion
same,mutagenic call,"Species/Cell Type: Mammalian polychromatic erythrocytes, Assay Type: Micronucleus test, chromosome aberrations, Assay Code: MNT+, Evaluation Type: Evaluation B (Post-1980)",active; positive
same,mutagenic call,"Species/Cell Type: Nonhuman, Assay Type: Sister-chromatid exchange (SCE) in vitro, Assay Code: SC2T, Evaluation Type: Evaluation B (Post-1980)",no conclusion
ClCc1ccccc1,mutagenic call,"Species/Cell Type: Bacillus subtilis (H17 vs M45), Assay Type: Rec-assay, spot test, DNA effects (bacterial DNA repair), Assay Code: REW+, Evaluation Type: Evaluation A (Pre-1980)",active; positive
same,mutagenic call,"Species/Cell Type: Chinese hamster ovary (CHO) cells, Assay Type: Forward gene mutation at the HPRT locus, Assay Code: CHOT, Evaluation Type: Evaluation B (Post-1980)",no conclusion
same,mutagenic call,"Species/Cell Type: Escherichia coli polA (W3110 vs P3478), Assay Type: Rec-assay, DNA effects (bacterial DNA repair), Assay Code: RE2+, Evaluation Type: Evaluation A (Pre-1980)",active; positive
same,mutagenic call,[9],active; positive
same,mutagenic call,"Species/Cell Type: Human diploid fibroblasts, Assay Type: Unscheduled DNA synthesis (UDS) in vitro, DNA effects, Assay Code: UDH+, Evaluation Type: Evaluation A (Pre-1980)",active; positive
same,mutagenic call,"Species/Cell Type: Human lymphocytes, Assay Type: Sister-chromatid exchange (SCE) in vitro, Assay Code: SCL+, Evaluation Type: Evaluation B (Post-1980)",active; positive
same,mutagenic call,"Species/Cell Type: Human, Assay Type: Sister-chromatid exchange (SCE) in vitro, Assay Code: SC1+, Evaluation Type: Evaluation B (Post-1980)",active; positive
same,mutagenic call,"Species/Cell Type: Mammalian polychromatic erythrocytes, Assay Type: Micronucleus test, chromosome aberrations, Assay Code: MNT-, Evaluation Type: Evaluation B (Post-1980)",inactive; negative
same,call,[2],active; positive
same,mutagenic call,"Species/Cell Type: Saccharomyces cerevisiae, Assay Type: Mitotic recombination or gene conversion, Assay Code: YEH+, Evaluation Type: Evaluation A (Pre-1980)",active; positive
same,mutagenic call,[3],active; positive
same,mutagenic call,"Species/Cell Type: Salmonella typhimurium, Assay Type: Forward and reverse gene mutation, host-mediated assay, Assay Code: HMA-, Evaluation Type: Evaluation A (Pre-1980)",inactive; negative
same,mutagenic call,[4],active; positive
Nc1ccc(Cl)c(N)c1,call,[8],active; positive
O=S(=O)(O)c1ccc2c(N=Nc3cccc4ccccc34)c(O)c(S(=O)(=O)O)cc2c1,mutagenic call,[5],no conclusion
O=C(O)c1ccccc1N=Nc1ccc(N(CCCl)CCCl)cc1,mutagenic call,"Species/Cell Type: Drosophila melanogaster, Assay Type: Sex-linked recessive lethal gene mutation, Assay Code: SRL+, Evaluation Type: Evaluation A (Pre-1980)",active; positive
CN(C)c1ccc2cc3ccc(=[N+](C)C)cc-3sc2c1,mutagenic call,"Species/Cell Type: Saccharomyces cerevisiae, Assay Type: Reverse gene mutation, Assay Code: YER-, Evaluation Type: Evaluation A (Pre-1980)",inactive; negative
CCC(=O)Oc1ccc2c(c1)CC[C@@H]1[C@@H]2CC[C@]2(C)[C@@H](OC(=O)CC)CC[C@@H]12,mutagenic call,"Species/Cell Type: Rat, Sex: Male, Assay Type: Sperm morphology, Assay Code: SPA+, Evaluation Type: Evaluation A (Pre-1980)",active; positive
CC(Br)Br,mutagenic call,"Species/Cell Type: Drosophila melanogaster, Assay Type: Sex-linked recessive lethal gene mutation, Assay Code: SRLT, Evaluation Type: Evaluation A (Pre-1980)",no conclusion
same,mutagenic call,[9],active; positive
same,mutagenic call,"Species/Cell Type: Tradescantia species, Assay Type: Gene mutation, Assay Code: TRM-, Evaluation Type: Evaluation A (Pre-1980)",inactive; negative
CNc1nc2c(c(=O)n(C)c(=O)n2C)n1C,mutagenic call,"Species/Cell Type: Allium cepa, Assay Type: Chromosome aberrations, Assay Code: ALC+, Evaluation Type: Evaluation A (Pre-1980)",active; positive
CCCCC[C@H](O)/C=C/[C@@H]1[C@@H](C/C=C\CCCC(=O)O)[C@@H](O)C[C@H]1O,mutagenic call,"Species/Cell Type: Rabbit, Sex: Male, Assay Type: Sperm morphology, Assay Code: SPR+, Evaluation Type: Evaluation A (Pre-1980)",active; positive
C=C1C(=O)O[C@@H]2C[C@@H](C)[C@@H]3C[C@H](O)O[C@@H](O)[C@@]3(C)C[C@H]12,mutagenic call,[3],active; positive
Cc1ccc(S(=O)(=O)NC(=O)NN2CCCCCC2)cc1,mutagenic call,"Species/Cell Type: Nonhuman, Assay Type: Sister-chromatid exchange (SCE) in vivo, Assay Code: SC3T, Evaluation Type: Evaluation B (Post-1980)",no conclusion
C=CC(=O)c1ccc2c(c1)OCO2,mutagenic call,[6],no conclusion
CC(C)NCC(O)c1ccc2ccccc2c1 (configuration not stated),mutagenic call,[1],no conclusion
same,mutagenic call,[7],no conclusion
same,mutagenic call,"Species/Cell Type: Mouse, Sex: Male, Assay Type: Sperm morphology, Assay Code: SPI-, Evaluation Type: Evaluation A (Pre-1980)",inactive; negative
